US20230255195A1, “CRYOPRESERVATION METHOD FOR ORGAN-ON-A-CHIP” (MEPSGEN CO., LTD., priority 2020, published 2023)

Test system: three-dimensional organ-on-a-chip (hBMEC, pericytes, astrocytes in hydrogel)
Assay: TEER (transepithelial electrical resistance) of organ-on-a-chip after cryopreservation and thawing
Assay type: cell-based, human
Conditions: for TEER value after freezing compared with TEER value before freezing (normalized): FIG. 10; for TEER value after freezing compared with TEER value before freezing (normalized, before freezing set to 1): substance used as cryoprotectant in the cryopreservation method of Example 2, FIG. 9
Experimental: 10 μl of fibronectin was injected into each of the first channel and the second channel of the organ-on-a-chip of the present invention, and cultured in an incubator for 1 hour. Cell adhesion promoters of the first channel and the second channel were removed, and 10^7 cells/ml of a pericyte solution was injected into the second channel. After culturing for 3 hours in an incubator with the chip inverted, the culture solution in the second channel was removed. After injecting 10^7 cells/ml of a mixture in which astrocytes and hydrogel were mixed in a 1:9 volume ratio into the second channel, they were cultured in an incubator for 30 minutes. The culture solution was injected into the side channel and the first channel, and the well reservoir was filled with the culture solution and cultured for one day, and then 10^7 cells/ml of human brain microvascular endothelial cell (hBMEC) solution was injected into the first channel. After culturing for 1 hour in an incubator, the culture solution in the first channel was replaced and cultured for one day. The culture solution in the first channel and the side channel was replaced, and the side channel was plugged in, and then one side of the inlets of the first channel was connected to a syringe pump, and the other side was connected to a culture solution tank, and perfusion culture was performed at 4 dynes/cm^2 for 24 hours.
All of the culture solution in the well reservoir was removed from the organ-on-a-chip of Example 1 above, and the first channel and the side channel were washed with the culture solution. The side channel was washed twice with the cryopreservation solution (50% culture solution, 40% FBS, 10% DMSO) at 4 to 10° C. The culture solution in both inlets of the first channel was removed, and 30 μl of the cryopreservation solution was put into the inlet, and the cryopreservation solution was flowed by a difference in hydrostatic pressure (1 minute required). The preservation solution in the opposite inlet was removed, and 30 μl of the cryopreservation solution was additionally put into the inlet, and the cryopreservation solution was flowed by a difference in hydrostatic pressure (1 minute required). The chip was placed in a freezing container filled with isopropanol, and stored refrigerated for 15 minutes at 4° C., and then stored in a deep freezer (−80° C.).
The organ-on-a-chip of Example 2 above was taken out of the deep freezer and thawed for 10 minutes by immersing it in a constant temperature water bath (37° C.) so that the bottom was in contact, and then the culture solution in the side channel was replaced twice with a culture solution at 37° C. The preservation solution in both inlets of the first channel was removed, and 30 μl of the culture solution at 37° C. was put into the inlet, and the culture solution was flowed by a difference in hydrostatic pressure (1 minute required). The culture solution in the opposite inlet was removed, and 30 μl of the culture solution at 37° C. was additionally put into the inlet, and the culture solution was flowed by a difference in hydrostatic pressure (1 minute required). The well reservoir was filled with the culture solution at 37° C. and cultured for 24 hours or more.
The TEER value corresponds to a representative index for evaluating the cell-to-cell bonding force and the material permeability rate of the tissue and the like in the tissue function of the three-dimensional organ-on-a-chip.
The TEER value (ohm/cm^2) was calculated as follows, and the TEER value before freezing was set to 1 and compared and evaluated with the TEER value after freezing (normalized).

SMILES | TEER value after freezing compared with TEER value before freezing (normalized) (DMSO content 3% in preservation solution) | TEER value after freezing compared with TEER value before freezing (normalized) (DMSO content 5% in preservation solution) | TEER value after freezing compared with TEER value before freezing (normalized) (DMSO content 10% in preservation solution) | TEER value after freezing compared with TEER value before freezing (normalized, before freezing set to 1)
C[S+](C)[O-] [DMSO, dimethyl sulfoxide] | remained the same | increased | increased | increased
OCCO [EG, ethylene glycol] |  |  |  | lower than the TEER value before freezing
OCC(O)CO [glycerol] |  |  |  | remained the same
